Target: human A2A receptor (Homo sapiens (Human), UniProt P29274)
Assay: A2A competition binding assay using Scintillation Proximity technology
Conditions: 0.5 nM tritiated radioligand, Cheng-Prusoff
Description: Binding affinities of compounds of the invention for the human A2A receptor were determined in a competition binding assay using Scintillation Proximity technology. Thus, 1^μg (^ denotes 1 μg of membrane/well), or preferably 0.25 μg of membranes from HEK293 cells expressing the human A2a receptor were incubated with a compound of the invention at concentrations ranging from 3000 nM to 0.15 nM in a reaction mixture containing also 0.5 nM of a tritiated form of 5-amino-7-[2-phenethyl]-2-(furan-2-yl)-7H-pyrazolo[4,3-e][1,2,4]triazolo[1,5-c]pyrimidine (the tritiated compound) and 25 μg of wheat germ agglutin-coated yttrium silicate SPA beads for one hour at room temperature with agitation. The beads were then allowed to settle to the bottom of the wells for 1 hr, after which the membrane-associated radioactivity was determined by scintillation counting in a TopCount microplate reader. Ki values were determined using the Cheng-Prusoff equation.
HEK293 cells expressing the human, rat, dog or monkey adenosine 2a receptor (Purchased from Perkin-Elmer # RBHA2AM400UA).
The Tritiated compound was prepared in-house by MRL Radiochemistry according to published methods.
Wheat germ agglutinin-coated yttrium silicate SPA beads (GE Healthcare #RPNQ0023). Dilute to 25 mg/mL in assay buffer.
Assay Buffer was prepared in house: Dulbecco's calcium and magnesium free phosphate buffered saline+10 mM MgCl2
Adenosine deaminase from calf intestine, 10 mg/2 mL (Roche #10 102 105 001).
A2A antagonist standard (9-chloro-1-(2-furanyl)-[1,2,4]triazolo[1,5-c]quinazolin-5-amine from Tocris Bioscience)
Make eight 1:3 serial dilutions in 100% DMSO from a 3 mM compound stock
Transfer 50 nL of compound into a 384-well OptiPlate (Perkin Elmer).
Typically, final concentrations of compound used in the assay ranged from 3000 nM to 0.152 nM.
Dilute a solution of the Tritiated compound to 1.25 nM in assay buffer. This a 2.5× solution. The final concentration in the assay is 0.5 nM. Calculate the concentration by counting two 5 μL aliquots.
Use *1 ug or preferrably 0.25 ug of membrane/well. Dilute membranes to 9.7 μg/ml in assay buffer. Treat with 20 ug/ml adenosine deaminase (ADA) for 15 minutes at room temperature to degrade endogenous adenosine.
Use 25 μg/well wheat germ agglutinin-coated yttrium silicate SPA beads.
Mix ADA-treated membranes and SPA beads together for 30 min prior to assay.
To the Perkin-Elmer Optiplate-384 containing the compound titration add 20 μL of 2.5× solution of the Tritiated compound and 30 μL of the membrane-bead mixture. Incubate for one hour at room temperature with agitation.
Include total binding (assay buffer+1% DMSO) and non-specific binding (CGS15943, 1 μM) wells.
Allow the beads to settle for one hour.
A curve fitting program (i.e., Prism, Activity Base, Chemcart) is used to determine the EC50. The Ki value is calculated using the Cheng-Prusoff equation. Ki=EC50/(1+(radioligand concentration/Kd)) Counting and Calculations
Counting and calculations were performed as described within the “A2A Activity Binding of Compounds of the Invention” section. Using the foregoing methods, the following results were obtained using compounds of the invention described herein. Each example compound tested is reported in the following format: Example number: A2A Ki (nM) selectivity.

[1] = 0.25 μg of membranes from HEK293 cells expressing the human A2a receptor per well
[2] = values marked ^: 1 μg of membrane/well (HEK293 cells expressing the human A2a receptor)

Sequence of human A2A receptor (P29274 whole entry): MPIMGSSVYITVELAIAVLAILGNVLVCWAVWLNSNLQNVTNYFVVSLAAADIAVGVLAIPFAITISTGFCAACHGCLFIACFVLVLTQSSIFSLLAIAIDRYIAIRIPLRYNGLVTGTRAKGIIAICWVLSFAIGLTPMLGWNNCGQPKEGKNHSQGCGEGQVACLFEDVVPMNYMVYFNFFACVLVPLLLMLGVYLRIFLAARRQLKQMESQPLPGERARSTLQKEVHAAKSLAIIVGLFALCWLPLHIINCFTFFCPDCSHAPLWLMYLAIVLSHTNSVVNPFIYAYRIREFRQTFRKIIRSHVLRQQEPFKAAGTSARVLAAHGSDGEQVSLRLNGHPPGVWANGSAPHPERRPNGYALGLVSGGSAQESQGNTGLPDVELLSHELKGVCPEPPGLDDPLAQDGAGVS

Ki [1] [nM] | Ki [2] [nM] | Compound
1.5 | – | COc1cccc2c1nc(N)n1nc([C@@H]3CCCN(CCN4CCOCC4)C3)nc21 [Example 15, (R)-7-methoxy-2-(1-(2-morpholinoethyl)piperidin-3-yl)-[1,2,4]triazolo[1,5-c]quinazolin-5-amine]
660 | – | COc1cccc2c1nc(N)n1nc(C3CCCC(N)C3)nc21 (single isomer, unassigned) [Example 30D, 2-(3-aminocyclohexyl)-7-methoxy-[1,2,4]triazolo[1,5-c]quinazolin-5-amine]
20 | – | COc1cccc2c1nc(N)n1nc([C@@H]3CCCN(CC4(C)CC4)C3)nc21 [Example 10, (R)-7-methoxy-2-(1-((1-methylcyclopropyl)methyl)piperidin-3-yl)-[1,2,4]triazolo[1,5-c]quinazolin-5-amine]
2 | – | COc1cccc2c1nc(N)n1nc([C@@H]3CCN(CC(F)(F)F)C3)nc21 [Example 53, (R)-7-methoxy-2-(1-(2,2,2-trifluoroethyl)pyrrolidin-3-yl)-[1,2,4]triazolo[1,5-c]quinazolin-5-amine]
0.7 | – | COc1cccc2c1nc(N)n1nc([C@@H]3CCCN(CC4CC(F)(F)C4)C3)nc21 [Example 17, (R)-2-(1-((3,3-difluorocyclobutyl)methyl)piperidin-3-yl)-7-methoxy-[1,2,4]triazolo[1,5-c]quinazolin-5-amine]
44 | – | COc1cccc2c1nc(N)n1nc(C3CCCC(N)C3)nc21 (single isomer, unassigned) [Example 30B, 2-(3-aminocyclohexyl)-7-methoxy-[1,2,4]triazolo[1,5-c]quinazolin-5-amine]
1.3 | – | Nc1nc2cc(Cl)ccc2c2nc([C@@H]3CCCN(CC(F)F)C3)nn12 [Example 26, (R)-8-chloro-2-(1-(2,2-difluoroethyl)piperidin-3-yl)-[1,2,4]triazolo[1,5-c]quinazolin-5-amine]
– | 1.9 | COc1cccc2c1nc(N)n1nc([C@@H]3CCCN(c4nncs4)C3)nc21 [Example 20, (R)-2-(1-(1,3,4-thiadiazol-2-yl)piperidin-3-yl)-7-methoxy-[1,2,4]triazolo[1,5-c]quinazolin-5-amine]
5 | – | COc1cccc2c1nc(N)n1nc([C@@H]3CCCN(CC4CCOCC4)C3)nc21 [Example 44, (R)-7-methoxy-2-(1-((tetrahydro-2H-pyran-4-yl)methyl)piperidin-3-yl)-[1,2,4]triazolo[1,5-c]quinazolin-5-amine]
– | 4.4 | COc1cccc2c1nc(N)n1nc([C@@H]3CCCN(C(=O)C(C)(C)C)C3)nc21 [Example 38, 2-((3R)-1-(2,2-dimethylpropanoyl)piperidin-3-yl)-7-methoxy[1,2,4]triazolo [1,5-c]quinazolin-5-amine]
21 | – | COc1cccc2c1nc(N)n1nc(C3CC4CCC3N(CC(F)(F)F)C4)nc21 (single isomer, unassigned) [Example 35A, 7-methoxy-2-(2-(2,2,2-trifluoroethyl)-2-azabicyclo[2.2.2]octan-6-yl)-[1,2,4]triazolo[1,5-c]quinazolin-5-amine]
1.1 | – | COc1cccc2c1nc(N)n1nc([C@@H]3CCCN(C(=O)C(C)(C)F)C3)nc21 [Example 42, (R)-1-(3-(5-amino-7-methoxy-[1,2,4]triazolo[1,5-c]quinazolin-2-yl)piperidin-1-yl)-2-fluoro-2-methylpropan-1-one]
1.2 | – | Nc1nc2c(OC(F)F)cccc2c2nc([C@@H]3CCCN(CC(F)F)C3)nn12 [Example 25, (R)-2-(1-(2,2-difluoroethyl)piperidin-3-yl)-7-(difluoromethoxy)-[1,2,4]triazolo[1,5-c]quinazolin-5-amine]
0.6 | – | COc1cccc2c1nc(N)n1nc([C@@H]3CCCN(CCC(F)(F)F)C3)nc21 [Example 1, (R)-7-methoxy-2-(1-(3,3,3-trifluoropropyl)piperidin-3-yl)-[1,2,4]triazolo[1,5-d]quinazolin-5-amine]
1.2 | – | COc1cccc2c1nc(N)n1nc([C@@H]3CCCN(C4CC4)C3)nc21 [Example 52, (R)-2-(1-cyclopropylpiperidin-3-yl)-7-methoxy-[1,2,4]triazolo[1,5-c]quinazolin-5-amine]
3 | – | COc1cccc2c1nc(N)n1nc([C@H]3CN(C4CCC(F)(F)CC4)CCO3)nc21 [Example 54, (R)-2-(4-(4,4-difluorocyclohexyl)morpholin-2-yl)-7-methoxy-[1,2,4]triazolo[15-c]quinazolin-5-amine]
0.7 | – | COc1cccc2c1nc(N)n1nc(C3CCCCN(CC(F)(F)F)C3)nc21 (single isomer, unassigned) [Example 32A, 7-methoxy-2-(1-(2,22-trifluoroethyl)azepan-3-yl)-[1,2,4]triazolo[1,5-c]quinazolin-5-amine]
1.1 | – | COc1cccc2c1nc(N)n1nc(C3CN(CC(F)F)CC(F)(F)C3)nc21 (single isomer, unassigned) [Example 34A, 2-(1-(2,2-difluoroethyl)-5,5-difluoropiperidin-3-yl)-7-methoxy-[1,2,4]triazolo[1,5-c]quinazolin-5-amine]
– | 1.9 | COc1cccc(C(=O)N2CCC[C@@H](c3nc4c5cccc(OC)c5nc(N)n4n3)C2)c1 [Example 41, 7-methoxy-2-((3R)-1-((3-methoxyphenyl)carbonyl)piperidin-3-yl)[1,2,4]triazolo[1,5-c]quinazolin-5-amine]
2.4 | – | COc1cccc2c1nc(N)n1nc(C3CNCC(F)(F)C3)nc21 (single isomer, unassigned) [Example 33B, 2-(5,5-difluoropiperidin-3-1-yl)-7-methoxy-[1,2,4]triazolo[1,5-c]quinazolin-5-amine]
14 | – | COc1cccc2c1nc(N)n1nc([C@H]3CCCN(CCC(F)(F)F)C3)nc21 [Example 12, (S)-7-methoxy-2-(1-(3,3,3-trifluoropropyl)piperidin-3-yl)-[1,2,4]triazolo[1,5-c]quinazolin-5-amine]
115 | – | COc1cccc2c1nc(N)n1nc(C3CCCC(N)C3)nc21 (single isomer, unassigned) [Example 30C, 2-(3-aminocyclohexyl)-7-methoxy-[1,2,4]triazolo[1,5-c]quinazolin-5-amine]
3 | – | COc1cccc2c1nc(N)n1nc([C@@H]3CCCN(CC4(C)COC4)C3)nc21 [Example 18, (R)-7-methoxy-2-(1-((3-methyloxetan-3-yl)methyl)piperidin-3-yl)-[1,2,4]triazolo[1,5-d]quinazolin-5-amine]
– | 3.8 | COc1cccc2c1nc(N)n1nc([C@@H]3CCCN(Cc4cccnc4)C3)nc21 [Example 45, 7-methoxy-2-((3R)-1-(pyridin-3-ylmethyl)piperidin-3-yl)[1,2,4]triazolo[1,5-c]quinazolin-5-amine]
9.9 | – | COc1cccc2c1nc(N)n1nc(C3CC4CCC3N(CC(F)(F)F)C4)nc21 (single isomer, unassigned) [Example 35D, 7-methoxy-2-(2-(2,2,2-trifluoroethyl)-2-azabicyclo[2.2.2]octan-6-yl)-[1,2,4]triazolo[1,5-c]quinazolin-5-amine]
– | 2.1 | COc1cccc2c1nc(N)n1nc([C@@H]3CCCN(Cc4cnc(C)s4)C3)nc21 [Example 48, 7-methoxy-2-((3R)-1-((2-methyl-1,3-thiazol-5-yl)methyl)piperidin-3-yl)[1,2,4]triazolo[1,5-c]quinazolin-5-amine]

Source: patent US10822338B2, “Substituted aminoquinazoline compounds as A2A antagonist” (Merck Sharp & Dohme Corp., priority 2015, dated 2020)
